Reference: patent publication US11603349B2, “Anti-fibrotic compounds” (Certa Therapeutics Pty Ltd, priority 2017, dated 2023)

Key:
[1] = MTS tetrazolium reduction cell viability assay; conditions: rat, rat mesangial cells (1097/IRMC cells), TGF-β1 stimulated, CC50 (μM), vs 1% DMSO vehicle
[2] = tested on: TGF-β induced [14C]-proline incorporation in rat mesangial cells; assay: [14C]-proline incorporation assay (collagen biosynthesis); type: cell-based; conditions: Rattus norvegicus, Mesangial cell, 44 h, inhibition of TGF-β1 (1 ng/ml) induced [14C]-proline incorporation, IRMC cells

| IC50 [2] | SMILES | CC50 at 48 h [1] |
| --- | --- | --- |
| 14.2 µM | COc1ccc(/C=C/C(=O)Nc2ccccc2C(=O)O)cc1OCCc1cccnc1 [Example 64, (E)-2-(3-(4-methoxy-3-(2-(pyridin-3-yl)ethoxy)phenyl)acrylamido)benzoic acid] | 142 µM |
| 18.3 µM | COc1ccc(/C=C/C(=O)Nc2ccccc2C(=O)O)cc1OCCc1ccncc1 [Example 65, (E)-2-(3-(4-methoxy-3-(2-(pyridin-4-yl)ethoxy)phenyl)acrylamido)benzoic acid] | 152 µM |
| 17 µM | COc1ccc(/C=C/C(=O)Nc2ccccc2C(=O)O)cc1OCc1cnn(C)c1 [Example 66, (E)-2-(3-(4-methoxy-3-((1-methyl-1H-pyrazol-4-yl)methoxy)phenyl)acrylamido)benzoic acid] | > 300 µM |
| 23.5 µM | COc1ccc(/C=C/C(=O)Nc2ccccc2C(=O)O)cc1OCc1ccnn1C [Example 67, (E)-2-(3-(4-methoxy-3-((1-methyl-1H-pyrazol-5-yl)methoxy)phenyl)acrylamido)benzoic acid] | 144 µM |
| 44.9 µM | COc1cc(/C=C/C(=O)Nc2ccccc2C(=O)O)ccc1CN1CCN(C)CC1 [Example 68, (E)-2-(3-(3-methoxy-4-((4-methylpiperazin-1-yl)methyl)phenyl)acrylamido)benzoic acid] | > 300 µM |
| 48.4 µM | COc1cc(/C=C/C(=O)Nc2ccccc2C(=O)O)ccc1CN1CCOCC1 [Example 69, (E)-2-(3-(3-methoxy-4-(morpholinomethyl)phenyl)acrylamido)benzoic acid] | 691 µM |
| 49.8 µM | COc1ccc(/C=C/C(=O)Nc2ccccc2C(=O)O)cc1COC1CCN(C)CC1 [Example 70, (E)-2-(3-(4-methoxy-3-(((1-methylpiperidin-4-yl)oxy)methyl)phenyl)acrylamido)benzoic acid] | > 300 µM |
| 12.2 µM | C#CCOCc1cc(/C=C/C(=O)Nc2ccccc2C(=O)O)ccc1OC [Example 71, (E)-2-(3-(4-methoxy-3-((prop-2-yn-1-yloxy)methyl)phenyl)acrylamido)benzoic acid] | 116 µM |
| 15 µM | C#CCOCc1ccc(/C=C/C(=O)Nc2ccccc2C(=O)O)cc1OC [Example 72, (E)-2-(3-(3-methoxy-4-((prop-2-yn-1-yloxy)methyl)phenyl)acrylamido)benzoic acid] | > 300 µM |
| 33.1 µM | COCc1cc(/C=C/C(=O)Nc2ccccc2C(=O)O)ccc1OC [Example 73, (E)-2-(3-(4-methoxy-3-(methoxymethyl)phenyl)acrylamido)benzoic acid] | > 300 µM |
| 14.7 µM | C#CCNCc1cc(/C=C/C(=O)Nc2ccccc2C(=O)O)ccc1OC [Example 74, (E)-2-(3-(4-methoxy-3-((prop-2-yn-1-ylamino)methyl)phenyl)acrylamido)benzoic acid] | 319 µM |
| 27.6 µM | C#CCNCc1ccc(/C=C/C(=O)Nc2ccccc2C(=O)O)cc1OC [Example 75, (E)-2-(3-(3-methoxy-4-((prop-2-yn-1-ylamino)methyl)phenyl)acrylamido)benzoic acid] | > 300 µM |
| 14.9 µM | C#CCOc1ccc(/C=C/C(=O)Nc2cccc(C#N)c2)c(OCCN(C)C)c1OC [Example 76, (E)-N-(3-cyanophenyl)-3-[2-[2-(dimethylamino)ethoxy]-3-methoxy-4-prop-2-ynoxy-phenyl]prop-2-enamide] | 18.1 µM |
| 4.69 µM | C#CCOc1ccc(/C=C/C(=O)Nc2ccccc2C#N)c(OCCN(C)C)c1OC [Example 77] | 26.5 µM |
| 30.4 µM | C#CCOc1ccc(/C=C/C(=O)Nc2ccccc2C(=O)O)c(OCCN(C)C)c1OC [Example 78, (E)-2-(3-(2-(2-(dimethylamino)ethoxy)-3-methoxy-4-(prop-2-yn-1-yloxy)phenyl)acrylamido)-benzoic acid] | 404 µM |
| 9.52 µM | C#CCOc1ccc(/C=C/C(=O)Nc2ccccc2C#N)c(OC2CN(C)C2)c1OC [Example 79, (E)-N-(2-cyanophenyl)-3-[3-methoxy-2-(1-methylazetidin-3-yl)oxy-4-prop-2-ynoxy-phenyl]prop-2-enamide] | 23.4 µM |
| 24.5 µM | C#CCOc1ccc(/C=C/C(=O)Nc2ccccc2C(=O)O)c(OC2CCNC2)c1OC (stereo not drawn) [Example 80, 2-[[(E)-3-(3-methoxy-4-prop-2-ynoxy-2-pyrrolidin-3-yloxyphenyl)prop-2-enoyl]amino]benzoic acid] | > 100 µM |
| 7.15 µM | C#CCOc1ccc(/C=C/C(=O)Nc2ccccc2C#N)c(OC2CCN(C)C2)c1OC (stereo not drawn) [Example 81, (E)-N-(2-cyanophenyl)-3-[3-methoxy-2-(1-methylpyrrolidin-3-yl)oxy-4-prop-2-ynoxy-phenyl]prop-2-enamide] | 24.9 µM |

| IC50 [2] | SMILES | CC50 at 48 h [1] |
| --- | --- | --- |
| 3.42 µM | C#CCOc1ccc(/C=C/C(=O)Nc2ccccc2C#N)c(OC2CCNC2)c1OC (stereo not drawn) [Example 82, (E)-N-(2-cyanophenyl)-3-(3-methoxy-4-prop-2-ynoxy-2-pyrrolidin-3-yloxy-phenyl)prop-2-enamide] | 13.5 µM |
| 32.5 µM | C#CCOc1ccc(/C=C/C(=O)Nc2ccccc2C(=O)O)c(OC2CCNCC2)c1OC [Example 83, 2-[[(E)-3-[3-methoxy-2-(4-piperidyloxy)-4-prop-2-ynoxy-phenyl]prop-2-enoyl]amino]benzoic acid] | > 300 µM |
| 14.7 µM | C#CCOc1ccc(/C=C/C(=O)Nc2ccccc2C(=O)O)c(OCCN2CCOCC2)c1OC [Example 84, 2-[[(E)-3-[3-methoxy-2-(2-morpholinoethoxy)-4-prop-2-ynoxy-phenyl]prop-2-enoyl]amino]benzoic acid] | > 300 µM |
| 8.92 µM | C#CCOc1ccc(/C=C/C(=O)Nc2ccccc2C#N)c(OCCN2CCOCC2)c1OC [Example 85, (E)-N-(2-cyanophenyl)-3-[3-methoxy-2-(2-morpholinoethoxy)-4-prop-2-ynoxy-phenyl]prop-2-enamide] | 109 µM |
| 24.9 µM | C#CCOc1ccc(/C=C/C(=O)Nc2ccccc2C(=O)O)c(OCCCN(C)C)c1OC [Example 86, 2-[[(E)-3-[2-[3-(dimethylamino)propoxy]-3-methoxy-4-prop-2-ynoxy-phenyl]prop-2-enoyl]amino]benzoic acid] | > 300 µM |
| 3.69 µM | C#CCOc1ccc(/C=C/C(=O)Nc2ccccc2C#N)c(OCCCN(C)C)c1OC [Example 87, (E)-N-(2-cyanophenyl)-3-[2-[3-(dimethylamino)propoxy]-3-methoxy-4-prop-2-ynoxy-phenyl]prop-2-enamide] | 12.1 µM |
| 4.45 µM | C#CCOc1ccc(/C=C/C(=O)Nc2ccccc2C#N)c(OC2CCNCC2)c1OC [Example 88, (E)-N-(2-cyanophenyl)-3-[3-methoxy-2-(4-piperidyloxy)-4-prop-2-ynoxy-phenyl]prop-2-enamide] | 12.4 µM |
| 4.66 µM | C#CCOc1ccc(/C=C/C(=O)Nc2ccccc2C#N)c(OC2CCN(C)CC2)c1OC [Example 89, (E)-N-(2-cyanophenyl)-3-[3-methoxy-2-[(1-methyl-4-piperidyl)oxy]-4-prop-2-ynoxy-phenyl]prop-2-enamide] | 19.8 µM |
| 21.9 µM | COc1c(OCC2CC2)ccc(/C=C/C(=O)Nc2ccccc2C(=O)O)c1OCCN(C)C [Example 90, 2-[[(E)-3-[4-(cyclopropylmethoxy)-2-[2-(dimethylamino)ethoxy]-3-methoxy-phenyl]prop-2-enoyl]amino]benzoic acid] | > 300 µM |
| 8.38 µM | COc1cccc(/C=C/C(=O)Nc2cccc(C#N)c2)c1OCCN(C)C [Example 91, (E)-N-(3-cyanophenyl)-3-(2-(2-(dimethylamino)ethoxy)-3-methoxyphenyl)acrylamide] | 18.1 µM |
| 49.2 µM | COc1cccc(/C=C/C(=O)Nc2ccccc2C#N)c1OCCN(C)C [Example 92, (E)-N-(2-cyanophenyl)-3-(2-(2-(dimethylamino)ethoxy)-3-methoxyphenyl)acrylamide] | 109 µM |
| 5.23 µM | COc1ccc(/C=C/C(=O)Nc2cccc(C#N)c2)c(OCCN(C)C)c1 [Example 93, (E)-N-(3-cyanophenyl)-3-(2-(2-(dimethylamino)ethoxy)-4-methoxyphenyl)acrylamide] | 17.2 µM |
| 21.7 µM | COc1ccc(/C=C/C(=O)Nc2ccccc2C#N)c(OCCN(C)C)c1 [Example 94, (E)-N-(2-cyanophenyl)-3-[2-[2-(dimethylamino)ethoxy]4-methoxy-phenyl]prop-2-enamide] | 35 µM |
| 17.6 µM | C#CCOc1c(/C=C/C(=O)Nc2ccccc2C(=O)O)ccc(OC)c1OC [Example 95, (E)-2-(3-(3,4-dimethoxy-2-(prop-2-yn-1-yloxy)phenyl)acrylamido)benzoic Acid] | 111 µM |
| 33.6 µM | COc1ccc(/C=C/C(=O)Nc2ccccc2C(=O)O)c(OCc2cccnc2)c1OC [Example 96, (E)-2-(3-(3,4-dimethoxy-2-(pyridin-3-ylmethoxy)phenyl)acrylamido)benzoic Acid] | > 300 µM |
| 46.2 µM | COc1cc(/C=C/C(=O)Nc2ccccc2C(=O)O)ccc1N1CCN(C)CC1 [Example 97, (E)-2-(3-(3-methoxy-4-(4-methylpiperazin-1-yl)phenyl)acrylamido)benzoic acid] | > 300 µM |
| 9.29 µM | CCc1ccc(/C=C/C(=O)Nc2ccccc2C(=O)O)cc1OC [Example 100, (E)-2-(3-(4-ethyl-3-methoxyphenyl)acrylamido)benzoic Acid] | 37 µM |
| 17 µM | COc1ccc(/C=C/C(=O)Nc2ccccc2C(=O)O)cc1N1CCOCC1 [Example 101, (E)-2-(3-(4-methoxy-3-morpholinophenyl)acrylamido)benzoic Acid] | 119 µM |
